Counter-ions that a name gives are not always drawn.
target: T1, human CGT (ceramide galactosyltransferase), CHO/CGT lysate (Homo sapiens, UniProt Q16880); experiment: CGT enzyme assay, RapidFire/MS/MS readout with 0.01% Tween added (Table 1 ranges with two asterisks **); assay type: biochemical; conditions: CGT enzymatic assay; range with two asterisks (**): RapidFire/MS/MS method with 0.01% Tween added
T1 construct: Full-length human CGT cDNA was cloned into the BamH1/Xho1 site of pcDNA3.1 (+); expressed in transfected cells; host or cells: Chinese hamster ovary (CHO) cells; lysate prepared with M-PER
T1 sequence (Q16880 21-541): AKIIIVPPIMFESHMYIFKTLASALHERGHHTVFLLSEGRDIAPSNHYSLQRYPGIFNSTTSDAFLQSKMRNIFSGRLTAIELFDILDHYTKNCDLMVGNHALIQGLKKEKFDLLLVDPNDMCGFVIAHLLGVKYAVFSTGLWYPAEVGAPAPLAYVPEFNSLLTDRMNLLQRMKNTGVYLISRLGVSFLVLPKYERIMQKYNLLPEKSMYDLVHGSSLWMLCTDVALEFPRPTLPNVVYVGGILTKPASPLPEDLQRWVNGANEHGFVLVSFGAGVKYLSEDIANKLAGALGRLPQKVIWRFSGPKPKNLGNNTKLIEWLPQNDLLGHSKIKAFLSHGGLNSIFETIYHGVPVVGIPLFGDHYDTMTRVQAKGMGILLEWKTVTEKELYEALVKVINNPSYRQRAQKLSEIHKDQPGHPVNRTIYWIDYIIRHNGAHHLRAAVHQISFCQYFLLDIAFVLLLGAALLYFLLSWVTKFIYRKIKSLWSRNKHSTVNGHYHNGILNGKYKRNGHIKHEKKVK
Description: Full-length human CGT cDNA was cloned into the BamH1/Xho1 site of pcDNA3.1 (+) mammalian expression vector (V90-20, Invitrogen, Carlsbad, Calif.) and the plasmid was transfected into Chinese hamster ovary (CHO) cells. Lysate was prepared using M-PER (Mammalian Protein Extraction Reagent, ThermoFisher Scientific, Grand Island, N.Y.) in the presence of a protease inhibitor cocktail (P8340, Sigma, Saint Louis, Mo.). Each 100 mm dish (100% confluent, approximately 1×10^7 cells) was lysed with 250 μL of M-PER containing protease inhibitors. Protein concentration was determined using a Pierce BCA protein assay kit (ThermoFisher Scientific). Four micrograms of CHO/CGT lysate was incubated with various concentrations of a compound (0.001 μM-50 μM) in 10 mM HEPES (pH 7.2) containing 35 μM dioleoylphosphatidylcholine, 5 mM MgCl2, 5 mM MnCl2, 1% BSA, 15 mM KCl, 1 mM EGTA, 8 mM CHAPS, 10 μM C6-NBD-dihydro-ceramide and 17.5 μM UDP-galactose in a final reaction volume of 20 μL at 37° C. for 1 hour. The final concentration of DMSO was 0.5% in both compound-treated and mock-treated samples. Tween 80 (0.01%) was optionally added to the reaction mixture to help solubilize the compounds. Each individual reaction was diluted with 80 μL of methanol:acetronitrile (1:3) containing 5 μM N-docdecanoyl-NBD-galactosylceramide (internal standard) to stop the reaction. 200 μL H2O:acetonitile (1:1) was added to precipitate the protein. After sufficient mixing, the plates were centrifuged at 2469 g for 38 minutes, 200 μL of supernatant was transferred to a LC/MS 96-deep well plate and a second spin was performed at 2469 g for 10 minutes. The final supernatant was injected in triplicate for RapidFire/MS/MS analysis.
Quantitative Analysis Using the RapidFire/MS/MS Method:
The quantitative analysis of C6-NBD-dihydro-ceramide and C6-NBD-dihydro-galactosylceramide was performed on a Rapid Fire 360 high-throughput mass spectrometry system (Agilent Technologies, Palo Alto, Calif.) coupled with a API4000^+ triple quadrupole mass spectrometer (Applied Biosystems, Concord, Ontario, Canada). RapidFire software packages, including RapidFire Control panel, RapidFire UI and RapidFire Integrator (Agilent Technologies), were used to control the RapidFire instrument and to process data. Analyst 1.6.2 software packages (Applied Biosystems) were used to control the MS system and acquire MS data. […] of sample was loaded on a micro-scale C4 solid-phase extraction (SPE) cartridge (Agilent Technologies) and salts were removed using water supplemented with 0.1% formic acid at the flow rate of 1.5 mL/min for 3 sec. C6-NBD-dihydro-ceramide and C6-NBD-dihydro-galactosylceramide were co-eluted into the mass spectrometer using acetonitrile containing 0.1% formic acid at the flow rate of 1.0 mL/min for 3 sec. The total cycle time of one injection was 8 secs. The MS/MS detection was performed in ESI negative mode. The mass transition of C6-NBD-dihydro-galactosylceramide was m/z 752.6→678.6 using a −40 V collision energy, the mass transition of C6-NBD-dihydro-ceramide was m/z 590.6→115.8 using a −40 V collision energy and the mass transition of N-docdecanoyl-NBD-galactosylceramide was m/z 820.9→746.3 using a −45 V collision energy.
The C6-NBD-dihydro-galactosylceramide reading was normalized first by dividing the peak area of C6-NBD-dihydro-galactosylceramide by the peak area of the internal standard, N-docdecanoyl-NBD-galactosylceramide. IC50 values (see Table 1, where data ranges with one asterix (*) correspond to analysis using the RapidFire/MS/MS method, and data ranges with two asterixes (**) correspond to analysis using the RapidFire/MS/MS method with 0.01% Tween added) were generated from sigmoidal dose-response curves (variable slope) with GraphPad Prism software (GraphPad Software, Inc., San Diego, Calif.) using the normalized peak areas of C6-NBD-dihydro-galactosylceramide or the percent inhibition of C6-NBD-dihydro-galactosylceramide accumulation relative to DMSO control. […]

| IC50 | SMILES |
| --- | --- |
| 30 to 100 µM | N[C@@H]1CCN(C(=O)[C@H](NS(=O)(=O)c2ccc3cc(OC4CCCC4)ccc3c2)C(F)(F)c2ccc(-c3ccc(Cl)cc3)cc2)C[C@H]1F [Compound 178-3, N—((S)-3-((3R,4R)-4-amino-3-fluoropiperidin-1-yl)-1-(4′-chloro-[1,1′-biphenyl]-4-yl)-1,1-difluoro-3-oxopropan-2-yl)-6-(cyclopentyloxy)naphthalene-2-sulfonamide] |
| 10 to 30 µM | CC(C)Oc1cc(C(F)(F)[C@@H](NS(=O)(=O)c2ccc3cc(OC4CCCC4)ccc3c2)C(=O)N2CCC(N)CC2)ccc1Cl [Compound 172-2, (S)—N-(3-(4-aminopiperidin-1-yl)-1-(4-chloro-3-isopropoxyphenyl)-1,1-difluoro-3-oxopropan-2-yl)-6-(cyclopentyloxy) naphthalene-2-sulfonamide trifluoroacetate] |
| 1 to 10 µM | N[C@H]1CCN(C(=O)[C@@H](NS(=O)(=O)c2ccc3cc(OC4CCCC4)ccc3c2)C(F)(F)c2ccc(-c3ccc(Cl)cc3)cc2)C1 [Compound 148-1, N—((R)-3-((S)-3-aminopyrrolidin-1-yl)-1-(4′-chloro-[1,1′-biphenyl]-4-yl)-1,1-difluoro-3-oxopropan-2-yl)-6-(cyclopentyloxy)naphthalene-2-sulfonamide trifluoroacetate] |
| 30 to 100 µM | NC1CCN(C(=O)[C@H](NC(=O)[C@H](O)c2ccc3cc(OC4CCCC4)ccc3c2)C(F)(F)c2ccc(-c3ccc(Cl)cc3)cc2)CC1 [Compound 159-4, (R)—N—((S)-3-(4-aminopiperidin-1-yl)-1-(4′-chloro-[1,1′-biphenyl]-4-yl)-1,1-difluoro-3-oxopropan-2-yl)-2-(6-(cyclopentyloxy)naphthalen-2-yl)-2-hydroxyacetamide trifluoroacetate] |
| 1 to 10 µM | N[C@@H]1CCN(C(=O)[C@H](NS(=O)(=O)c2ccc3cc(OC4CCCC4)ccc3c2)C(F)(F)c2ccc(-c3ccc(Cl)cc3)cc2)CC1(F)F [Compound 161-4, N—((S)-3-((R)-4-amino-3,3-difluoropiperidin-1-yl)-1-(4′-chloro-[1,1′-biphenyl]-4-yl)-1,1-difluoro-3-oxopropan-2-yl)-6-(cyclopentyloxy)naphthalene-2-sulfonamide trifluoroacetate] |
| 1 to 10 µM | O=C([C@@H](NS(=O)(=O)c1ccc(OCC2CCCCC2)cc1)C(F)(F)c1ccc(-c2ccc(Cl)cc2)cc1)N1C[C@H]2CNC[C@H]2C1 [Compound 179-1, N—((R)-1-(4′-chloro-[1,1′-biphenyl]-4-yl)-1,1-difluoro-3-((3aR,6aS)-hexahydropyrrolo[3,4-c]pyrrol-2(1H)-yl)-3-oxopropan-2-yl)-4-(cyclohexylmethoxy) benzenesulfonamide trifluoroacetate] |
| 30 to 100 µM | O=C([C@H](NS(=O)(=O)c1ccc(OCC2CCCCC2)cc1)C(F)(F)c1ccc(-c2ccc(Cl)cc2)cc1)N1CC[C@H]2CNC[C@H]21 [Compound 195-4, N-((S)-1-(4′-chloro-[1,1′-biphenyl]-4-yl)-1,1-difluoro-3-((3aS,6aS)-hexahydropyrrolo[3,4-b]pyrrol-1(2H)-yl)-3-oxopropan-2-yl)-4-(cyclohexylmethoxy)benzenesulfonamide] |
| 30 to 100 µM | N[C@H]1CCN(C(=O)[C@H](NS(=O)(=O)c2ccc(OCC3CCCCC3)cc2)C(F)(F)c2ccc(-c3ccc(Cl)cc3)cc2)C1 [Compound 171-2, N—((S)-3-((S)-3-aminopyrrolidin-1-yl)-1-(4′-chloro-[1,1′-biphenyl]-4-yl)-1,1-difluoro-3-oxopropan-2-yl)-4-(cyclohexylmethoxy) benzenesulfonamide trifluoroacetate] |
| 30 to 100 µM | O=C([C@H](NS(=O)(=O)c1ccc(OCC2CCCCC2)cc1)C(F)(F)c1ccc(-c2ccc(Cl)cc2)cc1)N1C[C@H]2CNC[C@H]2C1 [Compound 179-2, N—((S)-1-(4′-chloro-[1,1′-biphenyl]-4-yl)-1,1-difluoro-3-((3aR,6aS)-hexahydropyrrolo[3,4-c]pyrrol-2(1H)-yl)-3-oxopropan-2-yl)-4-(cyclohexylmethoxy)benzenesulfonamide trifluoroacetate] |
| 1 to 10 µM | O=C([C@@H](NS(=O)(=O)c1ccc2cc(OC3CCCC3)ccc2c1)C(F)(F)c1ccc(-c2ccc(Cl)cc2)cc1)N1CCNC2(CC2)C1 [Compound 188-1, (R)-N-(1-(4′-chloro-[1,1′-biphenyl]-4-yl)-1,1-difluoro-3-oxo-3-(4,7-diazaspiro[2.5]octan-7-yl)propan-2-yl)-6-(cyclopentyloxy)naphthalene-2-sulfonamide] |

| SMILES | IC50 |
| --- | --- |
| NC1CC2CCC(C1)N2C(=O)[C@@H](NS(=O)(=O)c1cc2ccc(OC3CCCC3)cc2s1)C(F)(F)c1ccc(Br)cc1 (stereo partly drawn) [Compound 167-1, N-((2R)-3-(3-amino-8-azabicyclo[3.2.1]octan-8-yl)-1-(4-bromophenyl)-1,1-difluoro-3-oxopropan-2-yl)-6-(cyclopentyloxy)benzo[b]thiophene-2-sulfonamide trifluoroacetate] | 1 to 10 µM |
| NC1CC2CCC(C1)N2C(=O)[C@@H](NC(=O)[C@@H](O)c1ccc(OCC2CCCCC2)cc1)C(F)(F)c1ccc(-c2ccc(Cl)cc2)cc1 (stereo partly drawn) [Compound 152-3, (2S)—N-((2R)-3-(3-amino-8-azabicyclo[3.2.1]octan-8-yl)-1-(4′-chloro-[1,1′-biphenyl]-4-yl)-1,1-difluoro-3-oxopropan-2-yl)-2-(4-(cyclohexylmethoxy)phenyl)-2-hydroxyacetamide trifluoroacetate] | 1 to 10 µM |

same assay, conditions: CGT enzyme assay, RapidFire/MS/MS method with 0.01% Tween added (range with two asterisks **)

| IC50 | SMILES |
| --- | --- |
| < 1 µM | COc1cc(C(F)(F)[C@H](NS(=O)(=O)c2ccc3cc(OC4CCCC4)ccc3c2)C(=O)N2CCC(N)CC2)ccc1-c1ccc(Cl)cc1 [Compound 144-1, (R)—N-(3-(4-aminopiperidin-1-yl)-1-(4′-chloro-2-methoxy-[1,1′-biphenyl]-4-yl)-1,1-difluoro-3-oxopropan-2-yl)-6-(cyclopentyloxy)naphthalene-2-sulfonamide trifluoroacetate] |
| 1 to 10 µM | COc1cc(C(F)(F)[C@H](NS(=O)(=O)c2ccc3cc(OC4CCCC4)ccc3c2)C(=O)N2CCC(N)CC2)ccc1Br [Compound 143-1, (R)—N-(3-(4-aminopiperidin-1-yl)-1-(4-bromo-3-methoxyphenyl)-1,1-difluoro-3-oxopropan-2-yl)-6-(cyclopentyloxy)naphthalene-2-sulfonamide trifluoroacetate] |

Reference: patent US20190322676A1, “CERAMIDE GALACTOSYLTRANSFERASE INHIBITORS FOR THE TREATMENT OF DISEASE” (BioMarin Pharmaceutical Inc., priority 2016, published 2019)
